Measured values: patent US4849345A, “L-phenylalanine dehydrogenase and use thereof” (priority 1985, dated 1989)

How the values were obtained:
[1] = target: T1, L-phenylalanine dehydrogenase produced by Sporosarcina ureae SCRC-R04 (Sporosarcina ureae, UniProt P97014); assay: Substrate and coenzyme specificity, oxidative deamination (Sporosarcina enzyme); assay type: biochemical; settings: for action of the enzyme on the amino acid as substrate (in words): oxidative deamination
T1 sequence (P97014 1-379): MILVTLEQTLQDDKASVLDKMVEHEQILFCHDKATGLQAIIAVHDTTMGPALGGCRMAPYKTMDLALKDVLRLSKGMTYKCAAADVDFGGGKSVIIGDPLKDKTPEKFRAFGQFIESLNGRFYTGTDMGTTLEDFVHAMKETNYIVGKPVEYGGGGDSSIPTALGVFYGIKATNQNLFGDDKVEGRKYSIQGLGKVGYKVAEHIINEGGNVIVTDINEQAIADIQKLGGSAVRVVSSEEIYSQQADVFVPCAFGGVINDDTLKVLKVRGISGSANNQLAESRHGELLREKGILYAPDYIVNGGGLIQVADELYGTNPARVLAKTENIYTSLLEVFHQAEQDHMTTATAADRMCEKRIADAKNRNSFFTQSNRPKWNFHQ
Protocol: The substrate concentration is 10 mM, except for the L-tyrosine concentration which is 1.4 mM.

[2] = target: T2, L-phenylalanine dehydrogenase produced by Bacillus sp. SCRC-R79a (Lysinibacillus sphaericus, UniProt P23307); assay: Substrate and coenzyme specificity, oxidative deamination (Bacillus enzyme); assay type: biochemical; set-up: inoculated with Bacillus sp; endogenous in cells; host or cells: Bacillus sp; enzyme purified in house; settings: for action of the enzyme on the amino acid as substrate (in words): oxidative deamination
T2 sequence (P23307 1-381): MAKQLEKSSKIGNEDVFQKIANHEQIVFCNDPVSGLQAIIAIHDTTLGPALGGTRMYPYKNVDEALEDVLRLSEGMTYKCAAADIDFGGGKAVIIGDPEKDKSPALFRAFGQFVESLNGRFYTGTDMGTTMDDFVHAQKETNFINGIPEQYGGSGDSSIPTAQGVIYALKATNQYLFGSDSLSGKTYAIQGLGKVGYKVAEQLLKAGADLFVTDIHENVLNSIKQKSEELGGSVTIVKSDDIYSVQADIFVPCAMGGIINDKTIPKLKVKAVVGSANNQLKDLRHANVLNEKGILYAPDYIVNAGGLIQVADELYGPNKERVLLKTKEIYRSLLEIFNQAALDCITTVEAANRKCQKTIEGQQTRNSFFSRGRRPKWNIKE
Protocol: The substrate concentration is 10 mM except for the L-tyrosine concentration which is 1.4 mM.

[3] = target: T2, L-phenylalanine dehydrogenase produced by Bacillus sp. SCRC-R79a; settings: pH 9.0; phenylpyruvate to L-phenylalanine as 100%

Structure (SMILES) | action of the enzyme on the amino acid as substrate (in words) [1] | action of the enzyme on the amino acid as substrate (in words) [2] | activity relative to NAD^+ as coenzyme ([1]; coenzyme) | activity relative to NAD^+ as coenzyme ([2]; coenzyme) | relative rate of converting the α-keto acid to the L-amino acid [3]
N[C@@H](CCC(=O)O)C(=O)O [L-glutamic acid] | cannot serve as a substrate | cannot serve as a substrate | – | – | –
NC(=O)CC[C@H](N)C(=O)O [L-glutamine] | cannot serve as a substrate | cannot serve as a substrate | – | – | –
N[C@@H](Cc1c[nH]cn1)C(=O)O [L-histidine] | cannot serve as a substrate | cannot serve as a substrate | – | – | –
NCCCC[C@H](N)C(=O)O [L-lysine] | cannot serve as a substrate | cannot serve as a substrate | – | – | –
O=C(O)[C@@H]1CCCN1 [L-proline] | cannot serve as a substrate | cannot serve as a substrate | – | – | –
N[C@@H](CO)C(=O)O [L-serine] | cannot serve as a substrate | cannot serve as a substrate | – | – | –
C[C@@H](O)[C@H](N)C(=O)O [L-threonine] | cannot serve as a substrate | cannot serve as a substrate | – | – | –
NC(=O)c1ccc[n+]([C@@H]2O[C@H](COP(=O)([O-])OP(=O)(O)OC[C@H]3O[C@@H](n4cnc5c(N)ncnc54)[C@H](OP(=O)(O)O)[C@@H]3O)[C@@H](O)[C@H]2O)c1 [NADP^+] | – | – | about 3.9% | ~2.9% | –
O=C(O)C(=O)Cc1ccccc1 [phenylpyruvate] | – | – | – | – | 100%
